Measurements from patent US20050222173A1, “Triazolopyrimidines” (priority 2002, published 2005).

Tested on: Pyricularia oryzae
Assay: not given
Format: in vivo
Details: rice, protective, application rate 250 g/ha, evaluation 6 days after inoculation

In order of falling Efficacy in %:
1. C[C@H](Nc1c(-c2ccccc2Cl)c(Cl)nc2nc(Cl)nn12)C(F)(F)F  100%
2. C[C@H](Nc1c(-c2c(F)cccc2Cl)c(Cl)nc2nc(Cl)nn12)C(F)(F)F [drawing 69]  100%

Tested on: Venturia inaequalis
Assay: Venturia test (apple)/protective
Format: in vivo
Details: Venturia inaequalis, 240 h, protective, application rate 100 g/ha, evaluation 10 days after inoculation, read-out: Efficacy in %
Protocol: Venturia Test (Apple)/Protective [table] To produce a suitable preparation of active compound, 1 part by weight of active compound is mixed with the stated amounts of solvent and emulsifier, and the concentrate is diluted with water to the desired concentration. To test for protective activity, young plants are sprayed with the preparation of active compound at the stated application rate. […] The plants are then placed in a greenhouse at about 21° C. and a relative atmospheric humidity of about […].

In order of falling pest or weed control at 100 g/ha:
1. Fc1ccc(-c2c(Cl)nc3nc(Cl)nn3c2N[C@@H](Cl)C(F)(F)F)c(F)c1 [drawing 60]  100%
2. C[C@@H](Nc1c(-c2c(F)cc(F)cc2F)c(Cl)nc2nc(Cl)nn12)C(F)(F)F [drawing 51]  100%
3. C[C@H](Nc1c(-c2c(F)cccc2Cl)c(Cl)nc2nc(Cl)nn12)C(F)(F)F [drawing 59]  100%
4. C[C@@H](Nc1c(-c2ccccc2Cl)c(Cl)nc2nc(Cl)nn12)C(F)(F)F [drawing 50]  100%
5. C[C@H](Nc1c(-c2c(F)cc(F)cc2F)c(Cl)nc2nc(Br)nn12)C(F)(F)F [drawing 56]  99%
6. COc1nc2nc(Cl)c(-c3c(F)cc(F)cc3OC)c(NC(C)C(F)(F)F)n2n1 (centres unmarked) [drawing 67]  99%
7. Fc1cccc(Cl)c1-c1c(Cl)nc2nc(Cl)nn2c1NCC1CC1 [drawing 64]  99%
8. CC(C)Nc1c(-c2ccccc2Cl)c(Cl)nc2nc(Br)nn12 [drawing 52]  98%
9. C=CCN(CC)c1c(-c2c(F)cccc2Cl)c(Cl)nc2nc(Cl)nn12 [drawing 62]  96%
10. CC1CCCN(c2c(-c3c(F)cc(F)cc3F)c(Cl)nc3nc(Cl)nn23)C1 (centres unmarked) [drawing 57]  96%
11. COCCN(C)c1c(-c2c(F)cccc2Cl)c(Cl)nc2nc(Cl)nn12 [drawing 65]  96%
12. Clc1nc2nc(Cl)c(-c3ccccc3Cl)c(NCC3CC3)n2n1 [drawing 55]  96%
13. CC(C)CNc1c(-c2c(F)cccc2Cl)c(Cl)nc2nc(Cl)nn12 [drawing 63]  91%
14. CC(C)CNc1c(-c2ccc(F)cc2F)c(Cl)nc2nc(Cl)nn12 [drawing 58]  85%
15. Fc1cccc(Cl)c1-c1c(Cl)nc2nc(Cl)nn2c1N1CCCC1 [drawing 61]  85%
16. CCC(C)CNc1c(-c2c(F)cc(F)cc2F)c(Cl)nc2nc(Cl)nn12 (centres unmarked) [drawing 53]  83%
17. CCC(C)CNc1c(-c2c(F)cc(F)cc2F)c(Cl)nc2nc(Br)nn12 (centres unmarked) [drawing 54]  80%

Same assay, conditions: protective, application rate 100 g/ha, evaluation 10 days after inoculation

Molecule `C=C(C)CN(C)c1c(-c2c(F)cccc2Cl)c(Cl)nc2nc(Cl)nn12` [drawing 66] has an Efficacy in % of 84%.

Tested on: not listed separately
Assay: physchem
Details: not given

In order of falling chromatographic logP:
1. CC(C)Nc1c(-c2ccccc2Cl)c(Cl)nc2nc(Cl)nn12 [Example 1, N-[2,5-dichloro-6-(2-chlorophenyl)[1,2,4]triazolo[1,5-a]pyrimidin-7-yl]-N-isopropylamine]  3.43
2. Clc1ccccc1-c1c(Cl)nc2nc(Br)nn2c1Cl [Example 178, 2-Bromo-5,7-dichloro-6-(2-chlorophenyl)[1,2,4]triazolo[1,5-a]pyrimidine]  3.39
3. Clc1nc2nc(Cl)c(-c3ccccc3Cl)c(Cl)n2n1 [Example 177, 2,5,7-trichloro-6-(2-chlorophenyl)[1,2,4]triazolo[1,5-a]pyrimidine]  3.37
4. Fc1cc(F)c(-c2c(Cl)nc3nc(Cl)nn3c2Cl)c(F)c1 [Example 179, 2,5,7-Trichloro-6-(2,4,6-trifluorophenyl)[1,2,4]triazolo[1,5-a]pyrimidine]  3.28
5. Fc1cc(F)c(-c2c(Cl)nc3nc(Br)nn3c2Cl)c(F)c1 [Example 180, 2-Bromo-5,7-dichloro-6-(2,4,6-trifluorophenyl)[1,2,4]triazolo[1,5-a]pyrimidine]  3.27

Tested on: Podosphaera leucotricha
Assay: Podosphaera test (apple)/protective
Format: in vivo
Details: Podosphaera leucotricha, 240 h, protective, application rate 100 g/ha, evaluation 10 days after inoculation, read-out: Efficacy in %
Protocol: Podosphaera Test (Apple)/Protective [table] […] To test for protective activity, young plants are sprayed with the preparation of active compound at the stated application rate. After the spray coating has dried on, the plants are inoculated with an aqueous spore suspension of the apple mildew pathogen Podosphaera leucotricha. The plants are then placed in a greenhouse at about 23° C. and a relative atmospheric humidity of about 70%.

In order of rising pest or weed control at 100 g/ha:
1. Clc1nc2nc(Cl)c(-c3ccccc3Cl)c(NCC3CC3)n2n1 [drawing 37]  97%
2. COCCN(C)c1c(-c2c(F)cccc2Cl)c(Cl)nc2nc(Cl)nn12 [drawing 47]  100%
3. CCC(C)CNc1c(-c2c(F)cc(F)cc2F)c(Cl)nc2nc(Cl)nn12 (centres unmarked) [drawing 35]  100%

Same assay, conditions: protective, application rate 100 g/ha, evaluation 10 days after inoculation

`C=C(C)CN(C)c1c(-c2c(F)cccc2Cl)c(Cl)nc2nc(Cl)nn12` [drawing 48] showed an Efficacy in % of 100%.
